Assay results taken from publication PMC10756536, “Functional expression and ligand identification of homo- and heteromeric Drosophila melanogaster CO2 receptors in the Xenopus laevis oocyte system” (PLOS ONE, 2023).

Legend:
Format in all cases: cell-based
[1] = molecular target: T1, Gr21a/Gr63a CO2 receptor (Gr63a) (Drosophila melanogaster, UniProt Q9VPT1+Q9VZL7); assay: two-electrode voltage clamp, Xenopus oocytes, block of NaHCO3 current at […]
T1 construct: with Gr21a
T1 sequence (Q9VZL7 1-512): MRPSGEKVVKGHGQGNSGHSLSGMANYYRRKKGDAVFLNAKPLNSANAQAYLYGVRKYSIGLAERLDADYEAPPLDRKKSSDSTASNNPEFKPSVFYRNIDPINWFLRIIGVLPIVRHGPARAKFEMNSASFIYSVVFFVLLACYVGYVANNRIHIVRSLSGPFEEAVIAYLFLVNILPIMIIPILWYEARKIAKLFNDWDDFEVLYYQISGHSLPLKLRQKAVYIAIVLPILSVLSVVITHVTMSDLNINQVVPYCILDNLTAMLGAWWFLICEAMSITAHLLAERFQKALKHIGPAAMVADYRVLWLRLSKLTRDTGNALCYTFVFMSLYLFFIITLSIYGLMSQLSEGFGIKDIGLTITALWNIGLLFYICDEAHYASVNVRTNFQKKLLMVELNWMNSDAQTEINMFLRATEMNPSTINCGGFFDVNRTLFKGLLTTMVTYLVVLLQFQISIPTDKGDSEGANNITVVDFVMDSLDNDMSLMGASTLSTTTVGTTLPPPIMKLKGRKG
T1 sequence (Q9VPT1 1-447): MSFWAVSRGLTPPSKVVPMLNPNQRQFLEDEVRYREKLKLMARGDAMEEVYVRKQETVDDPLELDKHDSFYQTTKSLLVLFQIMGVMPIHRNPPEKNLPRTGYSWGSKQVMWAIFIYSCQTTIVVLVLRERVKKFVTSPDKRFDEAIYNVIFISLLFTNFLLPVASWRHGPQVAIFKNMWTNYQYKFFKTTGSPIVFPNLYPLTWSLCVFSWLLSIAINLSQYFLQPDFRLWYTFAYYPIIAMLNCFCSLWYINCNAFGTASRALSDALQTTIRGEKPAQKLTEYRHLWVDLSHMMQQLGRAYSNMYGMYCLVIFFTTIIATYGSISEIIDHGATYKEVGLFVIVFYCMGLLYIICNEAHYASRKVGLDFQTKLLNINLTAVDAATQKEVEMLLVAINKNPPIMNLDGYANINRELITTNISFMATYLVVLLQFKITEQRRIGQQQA

[2] = molecular target: T1, Gr21a/Gr63a CO2 receptor (Gr63a); assay: two-electrode voltage clamp, Xenopus oocytes, block of […] NaHCO3 current
[3] = molecular target: T1, Gr21a/Gr63a CO2 receptor (Gr63a); assay: two-electrode voltage clamp, Xenopus oocytes, agonist current at […]; conditions: read-out: % of 200 mM NHC response at 10 mM

| SMILES | two-electrode voltage clamp, Xenopus oocytes, block of NaHCO3 current at 10 mM [1] | activation at 10000 µM [3] [%] | further results |
| --- | --- | --- | --- |
| CCCCCCO [1-hexanol] | Gr21/Gr63 were significantly inhibited by 1-octanol, isobutyraldehyde, 1-hexanol | – | – |
| CCCCCCCCO [1-octanol] | Gr21/Gr63 were significantly inhibited by 1-octanol, isobutyraldehyde, 1-hexanol | – | – |
| CC(C)=CCCC(C)CCO (stereo not drawn) [citronellol] | – | – | IC50 [2]: 5.1 ± 0.25 mM |
| CC(C)C=O [isobutyraldehyde] | Gr21/Gr63 were significantly inhibited by 1-octanol, isobutyraldehyde, 1-hexanol | – | – |
| COC(=O)C(C)=O [methyl pyruvate] | – | 29 ± 8 | – |
| CCCCCCN [n-hexylamine] | – | 64 ± 17 | – |
